Here are results for 99 molecules from ChEMBL document CHEMBL3507680, “University of Dundee, Gates Library screen for HepG2 cell viability”.

The data set in a line: Human HepG2 cell viability assay in 384 well format. The data set is classed as toxicity, cell-based. Further details: dose 125 nL, time 70.5 hour; cytotoxicity at 70.5 h: concentration not given beside the values. As to conditions: HepG2 cells, read-out: Inhibition.
Regarding `Cc1cc(C)n2nc(CC(=O)N3CC[C@H]4NCCC[C@]4(CO)C3)nc2n1`, the cytotoxicity at 70.5 h is -3.3%. The value for `CCCn1nc2c(cc1=O)CN(CCN1CCCC1=O)CC2` was -10.7%.

As to `O=C(c1cc(-n2cccn2)ccn1)N(CC1CCC1)CC(F)(F)F`, the cytotoxicity at 70.5 h was -3.45%. The value for `O=C1NCCCCC1Sc1ccc(F)c(F)c1` (centres undefined) was -13.1%; that for `O=C(OCC1CCN(c2ccccc2)C1)c1cscn1` (centres undefined) was -103%. The value for `OC[C@H]1CC[C@]2(CC1)CN(Cc1ccccn1)Cc1ccccc1O2` was -13.2%; that for `COc1ccc(C[C@H]2CN(C(=O)CS(C)(=O)=O)CC[C@H]2OC)cc1` was -4.64%; that for `CN1C(=O)CO[C@H]2CN(C(=O)Nc3ccc(F)cc3)C[C@H]21` was -7.97%. The value for `Cc1ccc(N2C[C@H]3OCC[C@H]3[C@H](C(=O)NCc3ccco3)C2)nn1` was -7.31%. As to `COc1ccc(C(=O)N2CCCC(NC(=O)C(C)C)C2)c(O)c1` (centres undefined), the cytotoxicity at 70.5 h came to 2.73%. The value for `CC(C)c1n[nH]c(C2CN(CC(=O)N(C)Cc3ccco3)CCO2)n1` (centres undefined) was -3.93%. The value for `CN(C)Cc1cc(-c2nccn2CCc2cccnc2)ccc1O` was -5.02%. Take `Cc1ccc(NCc2nc3n(n2)CCCCC3)c(C)c1`: the cytotoxicity at 70.5 h came to 6.51%. The value for `Cn1c(CN2CCCCC2)nnc1C1CCCN(c2ccncc2F)C1` (centres undefined) was -5.33%. The value for `Cn1c(N2CCOCC2)nc2cc(C(=O)NCC(F)(F)F)ccc21` was -9.13%. The value for `CC(C)n1cc2cc(NC(=O)CCS(C)(=O)=O)ccc2n1` was 23.6%. Turning to `CCN(CC)C(=O)c1ccc(Cl)c(NC(=O)c2cnc(C)cn2)c1`, the cytotoxicity at 70.5 h was -7.02%. The value for `O=C(CCC1CCCO1)NCCc1ccccn1` (centres undefined) was -10%; that for `COCc1n[nH]/c(=N/C(=O)COc2cnc(C)cc2O)s1` was -9.66%; that for `CC(Cc1ccccc1Cl)NC(=O)Nc1cnn(CC(N)=O)c1` (centres undefined) was -2.99%. The value for `O=C(Cc1cccs1)N1CCOCC1c1ccccc1` (centres undefined) was 15.2%; that for `O=C(c1cccc(Cl)c1)N1CC[C@H]2[C@H]1CCN2CC1CC1` was -9.45%; that for `CCOC(=O)N1CCC(N2Cc3ncccc3C2=O)CC1` was 3.24%. The value for `O=C1CC(N2CCN(c3ccc(F)cc3)CC2)C(=O)N1Cc1cccs1` (centres undefined) was -12.3%; that for `Clc1ccc(OCCNC2(c3ccc(Br)cc3)CCOCC2)cc1` was 9.53%.

Turning to `COc1ccc(N2CCC(N3CCOC(C(F)(F)F)C3)CC2)cc1` (centres undefined), the cytotoxicity at 70.5 h is -7.02%. The value for `C[C@H](N)Cn1nc(-c2cccs2)oc1=O` was -1.53%.

With `CCS(=O)(=O)N1CCCCC1c1nc(C(C)C)no1` (centres undefined), the cytotoxicity at 70.5 h is 7.03%. The value for `O=C1CN(C(=O)c2cc(Cl)ccc2F)c2ccccc2N1` was 37.1%; that for `CCCc1nc(N2CCCN(c3ccncc3)CC2)c2cnn(C)c2n1` was -11.6%; that for `CC(C)N(CC(N)=O)CC(=O)NCCc1c(F)cccc1F` was -1.87%.

As to `COCCN1CCC2(CC1)CN(CCn1cccn1)C(=O)CO2`, the cytotoxicity at 70.5 h was found to be 1.22%. The value for `CC(C)n1nc(CNc2ncccn2)c2c1CN(C)CC2` was -6%; that for `Clc1snnc1CN1CCCC(Cn2cncn2)C1` (centres undefined) was 14.5%. Consider `O=S1(=O)C[C@@H]2[C@H](C1)N(Cc1cc(F)cc(F)c1)CCN2CCO`, for which the cytotoxicity at 70.5 h was -1.64%.

As for `O=C(NCCn1cnc(C2CCCC2)cc1=O)c1ccc(=O)[nH]n1`, the cytotoxicity at 70.5 h is -0.636%.

Regarding `COc1ccc(OC)c(-n2c(COC(C)C)n[nH]c2=O)c1`, the cytotoxicity at 70.5 h was -4.44%. The value for `Cn1ncc2c1NC(=O)CC2c1c(Cl)cccc1Cl` (centres undefined) was -16.4%; that for `COCCC(C)NCc1ccccc1-n1ccnc1` (centres undefined) was -3.09%. The value for `CC(c1nc(C2CC2)no1)N1CCN(Cc2cccc(F)c2F)CC1` (centres undefined) was -10.5%; that for `CNS(=O)(=O)CCCN1CCCC1c1noc(C)n1` (centres undefined) was -3.7%. The value for `NC1CCN(C(=O)c2cnc(Cc3c(Cl)cccc3Cl)nc2O)C1` (centres undefined) was 13.3%; that for `Cc1nccn1-c1ccc(CNC(=O)c2ccc([S+](C)[O-])cc2)cn1` (centres undefined) was -3.4%. With `CC(=O)Nc1nc2c(s1)CN(CC(=O)Nc1ccc(C)c(Cl)c1)CC2`, the cytotoxicity at 70.5 h was -14.4%. The value for `O=C([C@H]1COC[C@H]2CN(CC3CCCC3)C[C@H]21)N1CCOCC1` was 2.13%; that for `COc1cc(N2CCC(c3nccn3Cc3cccnc3)CC2)ncn1` was -5.38%. The value for `Cc1cnn(C2CN(Cc3noc(-c4ccccc4)n3)C2)c1` was -7.62%; that for `CCN(Cc1ccc2c(c1)OCO2)C(=O)NCc1nc(C)cs1` was -9.62%.

Regarding `Cc1nccc(CN2Cc3nccn3CC2c2ccccc2)n1` (centres undefined), the cytotoxicity at 70.5 h was -4.01%. The value for `Cc1nc(C)n(CC2CCCN(Cc3nc(C)c(C)o3)C2)n1` (centres undefined) was 13.2%; that for `O=C(Cn1cnnn1)NCC1(O)CCCc2ccccc21` (centres undefined) was -6.92%; that for `O=C(c1ccncc1)N1CCC2(CC1)CCN(Cc1ccccn1)C2=O` was 15.2%. In the case of `CN1CCCCC1c1ncc2c(n1)CCN(Cc1ccccc1Cl)C2` (centres undefined), the cytotoxicity at 70.5 h is -7.2%. The value for `Cc1nccc(-c2ccccc2)c1C(=O)N1CC[C@](C)(O)[C@H](C)C1` was 13.7%; that for `COc1cccc(CC(C)NC(=O)NCc2ccn(C)c2)c1` (centres undefined) was 0.709%. The value for `CCC(NC(=O)CC1CCN(CC)CC1)c1cn2cccnc2n1` (centres undefined) was -5.63%; that for `CCc1ccc(C(=O)N2CCCC(n3cncn3)C2)o1` (centres undefined) was -2.71%.

In the case of `CC(C)OCCCNC(=O)CS(=O)(=O)Cc1ccc(C(C)C)cc1`, the cytotoxicity at 70.5 h was -0.615%. The value for `COc1cc(OC)cc(C2(O)CCN(Cc3nc(C)c(C)o3)CC2)c1` was 0.268%.

In the case of `CN(C)CCN1CCOCC2(CCCN(C(=O)c3ccccn3)C2)C1` (centres undefined), the cytotoxicity at 70.5 h amounted to 0.371%. The value for `COc1ccc(C(C)NCCc2ccc(NC(C)=O)cc2)cc1F` (centres undefined) was -4.18%; that for `COc1cccc(CN2CCCC3(CCN(C(=O)[C@H]4CCCO4)C3)C2)c1` (some centres undefined) was -2.99%; that for `COCCCNc1nccc(-c2c[nH][nH]c2=O)n1` was 22.8%. The value for `COCCc1noc(CN2CC(C)(c3ccccc3)CCC2=O)n1` (centres undefined) was -9.17%; that for `Cc1cc(F)ccc1OC1(C(=O)O)CCN(Cc2cccnc2N)CC1` was 0.105%; that for `CCN(CC)C(CNCc1ccc(C)o1)c1ccco1` (centres undefined) was -11.7%.

With `CCc1nc(C)c(C(=O)NCC2COc3cc(OC)ccc3C2)o1` (centres undefined), the cytotoxicity at 70.5 h came out at 42.6%.

`Cn1nnc2c1C(COCC1CC1)CN(Cc1ccoc1)C2` (centres undefined): the cytotoxicity at 70.5 h was -9.19%. Turning to `Cc1nnc2n1CCN(CCC(=O)Nc1sccc1C#N)C2`, the cytotoxicity at 70.5 h was -12.9%. The value for `O=S(=O)(c1ccccc1)N1CCN(CCn2ccnc2)CC1` was 1.34%; that for `CSCC[C@H](NC(=O)CCn1ccc2c(Br)cccc21)C(=O)O` was -16.3%.

For `Cc1nn(C)c(N(C)C)c1CNCc1cccnc1N1CCOCC1`, the cytotoxicity at 70.5 h was -8.33%. The value for `CCOCC1CN(Cc2ccc(F)cc2)Cc2nn(CC3CC3)cc21` (centres undefined) was -17.2%. The value for `CCS(=O)(=O)CCNC(=O)NC(C)c1ccc(C)s1` (centres undefined) was -8.94%. `Cc1cnc(CN(Cc2ccccc2)CC2CCOCC2)cn1`: the cytotoxicity at 70.5 h is -3.35%. The value for `COCCN1CCC(CNC(=O)Nc2ccc(SC(F)(F)F)cc2)C1` (centres undefined) was -1.27%. On to `c1ccc(CN2CCC(NCCSc3ncn[nH]3)C2)cc1` (centres undefined), for which the cytotoxicity at 70.5 h was 30.4%.

For `CCN1C[C@H]2[C@@H](C1)N(S(=O)(=O)c1ccccc1F)CC[C@H]2OC`, the cytotoxicity at 70.5 h was -3.89%.

Turning to `Cn1ccc(CN2CCC(NC(=O)C3CCCCC3)CC2)cc1=O`, the cytotoxicity at 70.5 h is -3.14%. The value for `Cc1cccc(OCCC(=O)N(C)CCC#N)c1C` was -8.74%; that for `CCC(=O)N1CCC(Oc2ccc(C(=O)NCCN(C)C)cc2Cl)CC1` was 7.41%; that for `CC(C)(CO)Nc1c(NCc2ccccn2)c(=O)c1=O` was -8.21%. The value for `CCc1nnsc1C(=O)N1CCCC(c2nc3ccccc3[nH]2)C1` (centres undefined) was -14.3%; that for `COc1ccccc1CN1CCC(Cc2cnc(CN(C)C)cn2)CC1` was -2.82%. In the case of `Cc1cc(C)n(CC2CCCN2C(=O)Cc2cn3ccsc3n2)n1` (centres undefined), the cytotoxicity at 70.5 h is -12.4%. The value for `CS(=O)(=O)NCC1CCCN(Cc2ccccc2F)C1` (centres undefined) was -7.12%; that for `Cc1cccc2c1ccn2CC(=O)O` was 6.19%; that for `Cc1ccc(N2CCCN(C(=O)CC3C=CCC3)CC2)nn1` (centres undefined) was -4.92%. With `Cc1cccn2cc(CC(=O)N(CCN(C)C)CC3CCCO3)nc12` (centres undefined), the cytotoxicity at 70.5 h amounted to 17.3%. As to `Cc1cccc(-n2cnc(Cl)c2C(=O)O)c1`, the cytotoxicity at 70.5 h is -16.5%. The value for `CC(NC(=O)Nc1cc(F)ccc1N1CCCCC1)c1nncn1C` (centres undefined) was -4.36%; that for `Cc1cccc2cc(CN3CCCN4CCC[C@H]4C3)c(=O)[nH]c12` was 1.79%; that for `NC(=O)c1csc(N2C[C@@H](CN3CCOCC3)[C@@H](CO)C2)n1` was -2.9%. The value for `Cc1ccc(-c2ccnc(NC(c3ncccc3C)C3CC3)n2)c(C)n1` (centres undefined) was -3.87%; that for `COCCOc1ccc(CNc2nc3ccccc3nc2N)cn1` was -3.46%. Take `CN(C)S(=O)(=O)Nc1ccc(-n2nncc2C(F)(F)F)cc1`: the cytotoxicity at 70.5 h came to 3.32%.

Take `O=C(c1ccn(-c2cccc(Cl)c2)n1)N1CCN(CCO)CC1`: the cytotoxicity at 70.5 h came to 0.676%. The value for `O=C(c1ccc2c(c1)OCO2)N1C[C@H](OCC2CC2)[C@H]2COC[C@H]21` was -8.17%. The value for `CCN(CC)CCC(=O)N1CCc2c(nc(N(C)C)nc2N(C)C)C1` was 29.3%.
